Patent US11213522B2, “Autoimmune-induced glutamatergic receptor dysfunction methods and treatments” (SARAH HERZOG MEMORIAL HOSPITAL EZRAT NASHIM ASSOCIATION, priority 2013, dated 2022)

What was measured:
[1] = tested on: patient positive for anti-NR1 NMDAR antibodies; test: Test of Attentional Vigilance (TOAV); assay type: in vivo, human; settings: post-6 weeks D-serine
Experimental: The trial consisted of two periods, starting with a 2 week lead-in/stabilization period (−2-0) following which the patient was entered in the second period of the study which consisted of a 6 week (0-6), open-label, fixed dose therapy phase. During this phase, the patient received adjuvant treatment with DSR, whose dose was increased from 1500 mg/day (week 1) to 2000 mg/day (weeks 2 and 3) to 3000 mg/day (weeks 4 and 5) and to 4000 mg/day (week 6). The doses of the ongoing medication received by the patient remained fixed throughout the study and no changes in medication were performed.
In addition, cognitive performance was assessed pre- and post DSR treatment. For this purpose, a 1.5-hour neurocognitive assessment battery (nine computerized and two paper/pencil tests) was employed that measures accuracy and speed of performance in major cognition domains, including attention/vigilance, planning, short-term and working memory, decision making, abstraction and mental flexibility. All the tests were formatted like games and puzzles, and were administered to the patient as part of the comprehensive neuropsychiatric assessment at baseline and the end of study. The neurocognitive battery included the 1) Test of Attentional Vigilance (TOAV, (Forbes, 1998, Journal of Clinical Psychology 54:461-476; Greenberg, 1993, Journal of Child Psychology and Psychiatry 34: 1019-30)); 2) Tower of London (TOL, (Shailice, 1982, Specific impairments of planning Philosophical Transactions of the Royal Society of London. Series B, Biological Sciences 298:199-209); 3-4) Digit Span Test (DST, forward and backward (Wechsler 1997, The Wechsler adult intelligence scale-III. San Antonio, Tex.: Psychological Corporation; Kaplan 1991, The WAIS-R as a neuropsychological instrument. San Antonio, Tex.: The Psychological Corporation; Lamar et al., 2007, Neuropsychologia 45:245-54; Lamar et al., 2008, Neuropsychologia 46:2597-601)); 5-6) Corsi Block Tapping Test (CBTT, forward and backward, (Corsi, 1972, Dissertation Abstracts International. […]

[2] = tested on: patient positive for anti-NR1 NMDAR antibodies; test: Quality of Life Scale (QLS), D-serine clinical trial; assay type: in vivo, human; settings: for QLS Symptoms/side-effects: week 0 score 15.63; for QLS Motivation/energy: week 0 score 42.86; for QLS Psychosocial: week 0 score 60
From the text: Out of the seventeen patients that entered the study, the serum of one patient was strongly positive at both serum sample dilutions for the presence of both IgG and IgM classes of anti-NR1 NMDAR antibodies. The patient was a single person having a diagnosis of schizophrenia according to DSM-IV-R criteria (American Psychiatric Association, 2000 Diagnostic and Statistical Manual of Mental Disorders-(DSM-IV-TR), 4th edition. American Psychiatric Association Washington D.C. (Text Revision)). There was no history of mental disorder in the patient's family. The patient had completed post-high school studies and had worked as a secretary. After a period of continuous headaches, for which no organic basis had been found, they had abruptly developed an acute psychosis characterized by grandiose and paranoid delusions, mystical thinking, […] affect and agitation, They had been hospitalized in a psychiatric hospital and underwent treatment with antipsychotic drugs and electroconvulsive therapy with only partial response. The patient had never returned to their previous functional and except for short attempts at living in the community, has been hospitalized ever since. They have been refractory to treatment with various classes of antipsychotic drugs, was not diagnosed with any medical or neurological disorder and was maintained on sulpiride 50 mg/day, citalopram 40 mg/day, lorazepam 1 mg/day and promethazine 50 mg/day. […] DSR is a naturally occurring amino acid that acts in vivo as an obligatory co-agonist at the glycine modulatory site associated with NMDAR. […] Both acute and chronic administration of 1-2 g DSR in humans is known to result in ≥100 times increases in DSR serum levels (Kantrowitz et al., 2010, Schizophr Res121:125-30; Heresco-Levy et al., 2005, Biol Psychiatry 57:577-85). The trial consisted of two periods, starting with a 2 week lead-in/stabilization period (-2-0) following which the patient was entered in the second period of the study which consisted of a 6 week (0-6), open-label, fixed dose therapy phase. During this phase, the patient received adjuvant treatment with DSR, whose dose was increased from 1500 mg/day (week 1) to 2000 mg/day (weeks 2 and 3) to 3000 mg/day (weeks 4 and 5) and to 4000 mg/day (week 6). The doses of the ongoing medication received by the patient remained fixed throughout the study and no changes in medication were performed. The assessment procedures used in the study included clinical and neurocognitive examinations. Motor and psychiatric symptoms as well as side-effects were rated biweekly throughout the study. The following instruments were used: 1) Positive and Negative Syndrome Scale (PANSS) (Kay et al., 1987, Positive and Negative Syndrome Scale (PANSS) rating manual. San Rafael California: Social and Behavioral Sciences Documents); 2) Quality of Life Scale (QLS) (Wilkinson et al., 2000, Self-report quality of life measure for people with schizophrenia: the SQLS. Br J Psychiatry 177:42-6); 3) Abnormal Involuntary Movement Scale (AIMS) (Guy, 1976, ECDEU Assessment Manual for Psychopharmacology-Revised. Rockville, Md.: US Dept. of Health, Education and Welfare); 4) Simpson Angus Scale for Extrapyramidal Symptoms (SAS) (Simpson and Angus, 1970, Acta Psychiatr Scand Suppl. 212:11-9); and 5) Udvalg for […] Undersogelser (UKU) Side Effect Rating Scale (Lingjaerde, et al., 1987 Acta Psychiatr Scand Suppl 334:1-100). In conjunction with UKU ratings, patient's vital signs and body weight were monitored throughout the study.

## N[C@H](CO)C(=O)O [D-serine]
[1]; pre-treatment 1
  TOAV Commission errors: 0
  TOAV Omission errors: 2
[1]; pre-treatment 562 ± 103
  TOAV Response time, mean ± SD: 523 ± 93 milliseconds
[2]; during treatment with DSR
  Quality of life of the patient: improved considerably
[2]; end of the 6 week treatment period vs baseline
  Reduction in reported symptoms and side effects (QLS): ~3 times
[2]; study week 2
  QLS Symptoms/side-effects: 9.38
  QLS Motivation/energy: 42.86
[2]; study week 2 of adjuvant D-serine
  QLS Psychosocial: 55
[2]; study week 4
  QLS Symptoms/side-effects: 9.38
  QLS Motivation/energy: 42.86
[2]; study week 4 of adjuvant D-serine
  QLS Psychosocial: 50
[2]; study week 6
  QLS Symptoms/side-effects: 3.13
  QLS Motivation/energy: 42.86
[2]; study week 6 of adjuvant D-serine
  QLS Psychosocial: 38.33
